From patent US20050261331A1, “Substituted pyrrolopyridines” (priority 2002, published 2005)
Where a name gives a salt, the structure may show the parent alone.

Tested on: not given
Experiment: not given
Settings: not given
Work on `Brc1cnc2[nH]c(-c3ccccc3)c(-c3ccco3)c2c1` [Example 12, 5-Bromo-3-furan-2-yl-2-phenyl-1-H-pyrrolo[2,3-b]pyridine] yielded a melting point of 105 to 107 °C.
In the case of `CC(=O)NCc1ccc(-c2c(-c3ccccc3)[nH]c3ncc(Br)cc23)o1` [Example 13, N-[5-(5-Bromo-2-phenyl-1-H-pyrrolo[2,3-b]pyridin-3-yl)-furan-2-ylmethyl]-acetamide], the melting point is reported as 176 to 176.5 °C.

Biological target: T1, recombinant human Itk kinase domain fused with GST (Homo sapiens, UniProt Q08881)
T1 construct: recombinant human Itk kinase domain fused with GST; made in house; host or cells: High Five insect cells
T1 sequence (Q08881 363-615 limits assumed): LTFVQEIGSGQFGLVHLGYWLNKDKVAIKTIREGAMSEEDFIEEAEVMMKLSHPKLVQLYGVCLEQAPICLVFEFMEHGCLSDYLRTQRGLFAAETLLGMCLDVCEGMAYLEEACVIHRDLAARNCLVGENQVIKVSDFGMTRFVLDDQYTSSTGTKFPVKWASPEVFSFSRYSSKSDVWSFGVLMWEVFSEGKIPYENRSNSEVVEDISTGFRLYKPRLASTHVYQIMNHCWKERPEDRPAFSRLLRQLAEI
Experiment: Itk LANCE TRF Assay
Assay type: biochemical
Settings: 160 ng/well Itk, 2 μM peptide substrate, 50 μM ATP, 50 minutes RT; read-out: Inhibition of Kinase Itk (IC50 μM)
Description: The Itk kinase assay utilized recombinant human Itk kinase domain fused with GST (Glutathione S-Transferase). The protein was expressed in High five insect cells, purified in one step on an affinity chromatography glutathione column and stored in 50 mM Tris/HCl (pH 7.6), 150 mM NaCl, 5% (w/v) mannitol, 1 mM DTT, 30% glycerol at −70° C. The kinase substrate used in the assay was a biotinylated peptide derived from the Src-optimal substrate (Nair et al, J. Med. Chem., 38: 4276, 1995; biotin-AEEEIYGEFEAKKKK).
The assay additions were as follows: Test compounds (or controls; 1 μL in 100% DMSO) were added to black 96-well flat-bottomed plates (Greiner 655076) followed by 20 μL Itk in assay buffer and the reaction was started by adding 20 μL ATP and peptide substrate in assay buffer. The assay buffer constitution during phosphorylation was: 50 mM HEPES (pH 6.8), 10 mM MgCl2, 0.015% Brij 35, 1 mM DTT, 10% glycerol, 160 ng/well Itk, 2 μM peptide substrate and 50 μM ATP. The assay was stopped after 50 minutes (RT) by adding 150 μL ice-cold Stop solution (50 mM Tris/HCl, pH 7.5, 10 mM EDTA, 0.9% NaCl and 0.1% BSA) together with LANCE reagents (2 nM PT66-Eu^3+, Wallac AD0069 and 5 μg/ml Streptavidin-APC, Wallac AD0059. Both concentrations were final in stopped assay solution). The plates were measured on a Wallac 1420 Victor 2 instrument with TRF settings after 1 h incubation, and the ratio (665 signal/615 signal)*10000 was used to calculate the inhibition values. IC50 values were determined using XLfit.
`CN(C)CCCOc1ccc(-c2c(-c3ccco3)[nH]c3ncc(Br)cc23)cc1` [Example 5, 3-{4-[S-Bromo-2-(2-furyl)-1H-pyrrolo[2,3-b]pyridin-3-yl]phenoxy}-N,N-dimethylpropan-1-amine trifluoroacetate] gave an IC50 of 0.01 µM.
`CC(=O)NCc1ccc(-c2c(-c3ccccc3)[nH]c3ncc(Br)cc23)o1` [Example 13, N-[5-(5-Bromo-2-phenyl-1-H-pyrrolo[2,3-b]pyridin-3-yl)-furan-2-ylmethyl]-acetamide] gave an IC50 of 0.03 µM.
`N#Cc1cnc2[nH]c(-c3ccccc3)c(-c3ccc(N4CCOCC4)cc3)c2c1` [Example 44, 3-(4-Morpholin-4-ylphenyl)-2-phenyl-1H-pyrrolo[2,3-b]pyridine-5-carbonitrile] gave an IC50 of 0.44 µM.
For `Cc1c(Br)cnc2[nH]c(-c3ccc(OCCCN(C)C)cc3)c(-c3cccnc3)c12` [Example 55, {3-[4-(5-Bromo-4-methyl-3-pyridin-3-yl-1H-pyrrolo[2,3-b]pyridin-2-yl)phenoxy]propyl}dimethylamine], the IC50 was 0.01 µM.
Work on `CN(C)CCCN(C)c1ccc(-c2[nH]c3ncc(Cl)cc3c2-c2cncnc2)cn1` [Example 61, N-[5-(5-Chloro-3-pyrimidin-5-yl-1H-pyrrolo[2,3-b]pyridin-2-yl]-N,N′,N′-trimethylpropane-1,3-diaminetrihydrochloride] yielded an IC50 of 0.04 µM.
